Experiments:
[1] = system: human ApoA-I promoter; assay: ApoA-I promoter induction in HepG2 liver cells (pAI.474-Luc luciferase reporter); type: cell-based; conditions: average values at 15 μM, 48 hours incubation
Procedure, shortened: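 HepG2 stably transfected with pAI.474-Luc, starved 24 h in MEM + 0.5% FBS, then treated with compounds at final 0–100 μM for 48 h. Luciferase activity in lysates, normalized to Bradford protein.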

[2] = system: ApoA-I protein; assay: ApoA-I protein expression in HepG2 cells (ELISA of conditioned media); type: cell-based, human; conditions: 7.5 μM
Procedure: This study confirmed that compounds of the invention have an effect on ApoA-I protein secretion in HepG2 (liver) cells by measuring whether stimulation of transcriptional activity of the endogenous ApoA-I promoter in the HepG2 cells increased the abundance and secretion of ApoA-I protein.
The HepG2 cell line was obtained from the ATCC and cultured in MEM media supplemented with 10% FBS (Gibco), with 1 mM sodium pyruvate, 0.1 mM MEM non-essential amino acid, 2 mM L-glutamine, 100 U/ml penicillin, 100 μg/ml streptomycin and 5 μg/ml plasmocin. Cells were maintained at 37° C. in an atmosphere of 5% CO2 Cells were grown to 85% confluency prior to initiating the experiment.
Cells were plated and allowed to adhere overnight in a phenol red-free DMEM containing 10% of Charcoal/Dextran treated FBS (Hyclone), with 1 mM sodium pyruvate, 0.1 mM MEM non-essential amino acid, 2 mM L-glutamine, 100 U/ml penicillin, 100 μg/ml streptomycin and 5 μg/ml plasmocin. The medium was removed, and cells were washed in 1×PBS. Cells were then starved in phenol red-free DMEM (serum free) for a period of 24 hours. Cells were then mock treated (untreated, DMSO), or treated with compound of the invention diluted in phenol red-free DMEM (serum free) media at a concentration of 7.5 μM. Cells and media were harvested at 0, 6 and 24 hours following compound treatment.
Medium was removed from cells at the desired times and applied to a solid phase capture sandwich in an ELISA assay according to manufacturer's instructions (Total human Apolipoprotein ELISA Assay-Alercheck).

[3] = Caco-2 permeability; type: in vitro ADME, human; conditions: human, Caco-2
Source text: The Caco-2 cell drug transport model is widely used for screening compounds in drug discovery to assess intestinal transport and predict absorption rates.

O=c1cc(-c2ccc(O)cc2)oc2ncccc12 [Example 34, 2-(4-Hydroxy-phenyl)-pyrano[2,3-b]pyridin-4-one]
ApoA-I Promoter Induction [1]: increased
ApoA-I content in the medium (ELISA) ([2]; 6 and 24 hours, vs untreated cells and cells treated with solvent): increased significantly
time after addition of compound at which ApoA-I levels in the medium start to increase ([2]; time course 0, 6, 24 hours): ~6 h
Papp [3]: 6.36 ×10⁻⁶ cm/s
